Here are results for seven molecules from patent publication US12410124B2 (priority 2019, dated 2025).

Like-named read-outs stand apart in the source and are kept apart here.

Experiment [1] deals with acetylcholinesterase (AchE) (Homo sapiens, UniProt P22303). The experiment in a line: biochemical. The protocol: The modified Ellman method was used to determine the inhibitory activity on acetylcholinesterase. The principle lies in that acetylthiocholine iodide is decomposed under the action of acetylcholinesterase (AchE) to generate thiocholine. The thiocholine is quickly reacted with DTNB as the colour-developing agent to generate a yellow substance with light absorption at 405 nm. To a 96-well microplate, 50 μl of enzyme reaction buffer, 125 μl of DTNB (3 mM), 25 μl of test sample or positive control drug, and 25 μl of AchE (0.2 U/ml) were successively added. After incubation at room temperature for 5 min, 25 μl of ATCI (15 mM) was added. After incubation at room temperature for 8 min, the absorbance value was determined at 405 nm with a microplate reader. A blank control group without enzyme (25 μl PBS instead of the sample to be tested) was also established.
acetylcholinesterase (AchE), sequence (P22303 32-614, species assumed): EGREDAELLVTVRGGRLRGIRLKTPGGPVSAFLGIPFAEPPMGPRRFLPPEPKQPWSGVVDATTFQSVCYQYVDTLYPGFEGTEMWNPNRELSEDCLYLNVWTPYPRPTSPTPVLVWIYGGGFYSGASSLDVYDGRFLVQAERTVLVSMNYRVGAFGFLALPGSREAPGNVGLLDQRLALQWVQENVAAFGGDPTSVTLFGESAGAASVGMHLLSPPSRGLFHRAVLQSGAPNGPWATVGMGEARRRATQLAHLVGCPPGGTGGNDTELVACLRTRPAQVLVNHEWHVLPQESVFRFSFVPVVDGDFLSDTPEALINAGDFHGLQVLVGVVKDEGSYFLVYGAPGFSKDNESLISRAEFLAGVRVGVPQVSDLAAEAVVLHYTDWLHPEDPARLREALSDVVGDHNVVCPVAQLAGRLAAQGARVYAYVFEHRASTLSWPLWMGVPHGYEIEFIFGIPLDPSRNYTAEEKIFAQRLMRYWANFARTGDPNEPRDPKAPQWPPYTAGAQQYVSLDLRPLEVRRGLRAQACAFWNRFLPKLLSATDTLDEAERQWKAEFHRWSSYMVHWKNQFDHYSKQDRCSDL

In the next experiment the test system is hippocampus GFAP. The experiment in a line: Number of hippocampus astrocytes with GFAP positive expression in MPTP Parkinson's disease model mouse (immunohistochemistry). The class given is in vivo. The conditions noted are these: hippocampus, MPTP Parkinson's disease model mouse, immunohistochemistry. On the procedure: (§1) Neurotoxins can be used to establish PD animal models. Currently, 1-methyl-4-phenyl-1,2,3,6-tetrahydropyridine (MPTP) is the sole synthetic toxin which is recognized to induce PD symptoms in human and non-human primates and in mice. Using MPTP subacute modeling method, C57BL/6J male mice were intraperitoneally injected with MPTP 30 mg/kg, once a day for 5 consecutive days. The experiment animals were divided into blank control group, MPTP model group, and compound treatment group. For the […] compound treatment group, the compound was administrated by gavage for 21 consecutive days after the completion of modeling; for the MPTP model group, the normal saline was administrated by gavage for 21 consecutive days after the completion of modeling; and for the blank control group, the normal saline was first intraperitoneally injected for 5 days, and then administrated by gavage for 21 days.
(§2) Neuron-glial cell network homeostasis disorder is an important factor for the selective and progressive death of substantia nigra dopaminergic neurons in PD. In the neurotoxic effect of MPTP, the excessive activations of microglial cells and astrocytes produce a variety of inflammatory cytokines and reactive oxygen species (ROS). These inflammatory factors and ROS amplify their respective toxicities and mediate malignant feedback loop, causing a cascade inflammation response and aggravating the pathological process of PD. CD11b and GFAP are the marker proteins for activations of microglial cells and astrocytes, respectively. Therefore, the effect of the target compounds on the activations of the microglial cells and astrocytes in the substantia nigra, hippocampus, and midbrain areas of MPTP-induced PD mice can be investigated, to explore the mechanism of the anti-PD effect of the target compounds by inhibiting the neuroinflammation.
(§3) Half of experiment mice in each group were taken to separate the midbrain after perfusion and fixation. The tissue was trimmed, and the hippocampus area was taken to prepare paraffin sections. The GFAP immunohistochemical staining was performed for the statistics of the change in the number of astrocytes with GFAP positive expression. The experiment included blank control group, MPTP model group, positive control group (caffeic acid phenethyl ester, CAPE), prototype control group (styryl sulfone compounds 3B, 3C, 3D, and 3G, whose structures are shown as above), and target compound group.

The test system of another experiment is substantia nigra CD11b. The experiment is described as follows: Number of substantia nigra microglial cells with CD11b positive expression in MPTP Parkinson's disease model mouse (immunohistochemistry). The class given is in vivo. The conditions noted are these: substantia nigra, MPTP Parkinson's disease model mouse, immunohistochemistry. The protocol:
as §1, §2
as §3, with “substantia nigra” for “hippocampus”, “CD11b” for “GFAP”, “microglial cells” for “astrocytes”

For the next experiment, the system named is midbrain pp38. The experiment is described as follows: Midbrain pp38 protein expression in MPTP Parkinson's disease model mouse (western-blotting). Type of experiment: in vivo. The conditions noted are these: midbrain total protein, GAPDH internal reference, gavage 21 days after MPTP modeling. The protocol: as §1
The p38 mitogen-activated protein kinase (p38 MAPK) is expressed in both neurons and glial cells, and is the intersection point of neuron-glial cell network information regulations. The activation of p38 signaling pathway is an important initiator of neuronal degeneration, which continuously induces the apoptosis of dopaminergic neurons in multiple ways. It has become a research hotspot for the treatment of PD. Studies have shown that the protective mechanism of CAPE against the death of primary cultured cerebellar granule neurons induced by glutamate lies in inhibiting the activation of p38 phosphorylation and in turn inhibiting the activation of the caspase 3 apoptotic pathway to prevent neuronal apoptosis. Therefore, the MPTP-induced PD mouse model can be used to investigate the inhibitory effect of the target compounds on the activation of p38 phosphorylation on the overall animal level.
Half of experiment mice in each group were taken to extract the total midbrain protein, and the change in the midbrain phosphorylated p38 protein expression was determined by western-blotting using GAPDH as the internal reference. The experiment included blank control group, MPTP model group, positive control group (caffeic acid phenethyl ester, CAPE), prototype control group (styryl sulfone compounds 3B, 3C, 3D, and 3G, whose structures are shown as above), and target compound group.

The test system of the next experiment is substantia nigra p-α-s. The experiment in a line: Substantia nigra p-α-s protein expression in MPTP Parkinson's disease model mouse (immunofluorescence). The following applies: percentage of mean intensity of blank control group, gavage 21 days after MPTP modeling. Type of experiment: in vivo. On the procedure: as §1
Alpha-synuclein is an “unfolded protein” in its natural state. It exists in a monomeric form, and participates in the physiological functions such as the release of neurotransmitters, the establishment of synaptic junctions, and the regulation of synaptic plasticity. Under pathological conditions, more than 90% of alpha-synuclein is phosphorylated at serine of position 129 and converted into phosphorylated alpha-synuclein (p-α-s), thereby forming Lewy bodies. The formation of Lewy bodies is one of the main pathological manifestations and pathological mechanisms for Parkinson's disease, and plays an important role in the formation and development of PD. The detection of the p-α-s expression in the midbrain and substantia nigra of PD model mice can evaluate the neuroprotective activity of the compound.
Half of experiment mice in each group were taken to separate the midbrain after perfusion and fixation. The tissue was trimmed, and the substantia nigra-striatum area was taken to prepare paraffin sections. The p-α-s immunofluorescence staining was performed in the brain sections of mice in each group. […] The experiment included blank control group, MPTP model group, positive control group (caffeic acid phenethyl ester, CAPE), prototype control group (styryl sulfone compounds 3B, 3C, 3D, and 3G, whose structures are shown as above), and target compound group.

Setting [2] is: acetylcholinesterase, modified Ellman method, read-out: IC50.

Broadly, the IC50 is the concentration at which inhibition is half-maximal. The molecule `Cc1ccc(N2CCN(C(=O)Oc3ccc(/C=C/S(=O)(=O)CCCC(c4ccc(OC(=O)CN(C)C)cc4)N(C)C)cc3OC(=O)N(C)c3ccccc3)CC2)cc1` (stereo not drawn) [Compound P1-1, (E)-4-{2-[4-(dimethylamino)-4-(4-(N,N-dimethylglycyloxy)phenyl)butylsulfonyl]ethenyl}-2-(N-methyl-N-phenylcarbamoyloxy)phenyl-4-(p-methylphenyl)piperazine-1-carboxylate] gave an IC50 in experiment [1] of 11.3 ± 1.48 µM. Also, in the experiment on hippocampus GFAP, the “Positive cell number (astrocytes with GFAP positive expression)” value amounted to 72 ± 3. Moreover, the “Positive cell number (microglial cells with CD11b positive expression)” value in the experiment with substantia nigra CD11b was found to be 26 ± 3. In the experiment with midbrain pp38, the “Expression (pp38/GAPDH)” value turned out to be 0.50 ± 0.09. In the experiment with substantia nigra p-α-s, the “Expression (Immunofluorescence intensity %)” value was 182.99 ± 12.70%.
In the same order, the values of `COc1ccc(CC(=O)Oc2ccc(C(N)CS(=O)(=O)/C=C/c3ccc(OC(C)(C)C)c(OC(=O)N(C)c4ccccc4)c3)cc2)cc1` (stereo not drawn) [Compound P1-3, (E)-4-{1-amino-2-[4-t-butoxy-3-(N-methyl-N-phenylcarbamoyloxy)styrylsulfonyl]ethyl}phenyl-2-(4-methoxyphenyl)acetate] are 14.4 ± 2.04 µM, 74 ± 3, 31 ± 4, 0.33 ± 0.07 and 48.33 ± 5.37%.
In experiment [1], `COc1ccc(CC(=O)Oc2ccc(/C(C)=C/S(=O)(=O)/C=C/c3ccc(OC(=O)N(C)C)c(O[Si](C)(C)CCl)c3)cc2)cc1` [Compound P1-7, 4-{(E)-1-[(E)-3-(chloromethyldimethylsiloxy)-4-(N,N-dimethylcarbamoyloxy)styrylsulfonyl]prop-1-en-2-yl}phenyl-2-(4-methoxyphenyl) acetate] registered an IC50 of 21.4 ± 2.07 µM. Moreover, the “Positive cell number (astrocytes with GFAP positive expression)” value in the experiment on hippocampus GFAP is 49 ± 4. The “Positive cell number (microglial cells with CD11b positive expression)” value in the experiment with substantia nigra CD11b is on record as 15 ± 2. Also, the “Expression (pp38/GAPDH)” value with midbrain pp38 was 0.40 ± 0.04. For the same molecule, in the experiment on substantia nigra p-α-s, the “Expression (Immunofluorescence intensity %)” value is on record as 61.28 ± 5.36%.
Take `CC[Si](CC)(Oc1ccc(C(Cl)S(=O)(=O)/C=C/c2ccc(OC(=O)N3CC(C)OC(C)C3)c(OC(=O)c3cccc(Cl)c3OC)c2)cc1)c1ccccc1` (stereo not drawn) [Compound R1-5, (E)-4-{2-[4-(diethylphenylsiloxy)phenylchloromesyl]ethenyl}-2-(3-chloro-2-methoxybenzoyloxy)phenyl-2,6-dimethylmorpholine-4-carboxylate]: the IC50 in experiment [1] (setting [2]) worked out at 27.5 ± 3.49 µM. In addition, in the experiment with hippocampus GFAP, the “Positive cell number (astrocytes with GFAP positive expression)” value came out at 80 ± 2. Besides, the “Positive cell number (microglial cells with CD11b positive expression)” value in the experiment with substantia nigra CD11b stood at 39 ± 6. The “Expression (pp38/GAPDH)” value in the experiment on midbrain pp38 stood at 0.44 ± 0.07. In addition, in the experiment with substantia nigra p-α-s, the “Expression (Immunofluorescence intensity %)” value was determined as 125.28 ± 9.35%.
`Cc1ccc(S(=O)(=O)Oc2ccc(CS(=O)(=O)/C=C/c3ccc(OS(=O)(=O)c4ccc(C)cc4)c(OC(=O)N(C)S(=O)(=O)c4ccc(C)cc4)c3)cc2)cc1` [Compound S6-6, (E)-2-(N-methyl-N-p-tosylcarbamoyloxy)-4-{2-[(4-p-tosyloxyphenyl)mesyl]ethenyl}phenyl p-toluenesulfonate] came in with an IC50 in experiment [1] of 15.6 ± 3.07 µM. For the same molecule, the “Positive cell number (astrocytes with GFAP positive expression)” value in the experiment on hippocampus GFAP is 58 ± 2. Besides, the “Positive cell number (microglial cells with CD11b positive expression)” value with substantia nigra CD11b amounted to 19 ± 2. Moreover, the “Expression (pp38/GAPDH)” value in the experiment on midbrain pp38 is recorded as 0.27 ± 0.05. The “Expression (Immunofluorescence intensity %)” value with substantia nigra p-α-s worked out at 72.57 ± 6.63%.
For the molecule `O=C(/C=C/c1ccc(O)c(O)c1)OCCc1ccccc1` [Positive control group, caffeic acid phenethyl ester, reference compound], the IC50 in experiment [1] (setting [2]) and in experiment [1] (read-out: IC50 values (acetylcholinesterase)) was greater than 100 µM in each case. For the same molecule, in the experiment with hippocampus GFAP, the “Positive cell number (astrocytes with GFAP positive expression)” value came to 86 ± 2. In the experiment on substantia nigra CD11b, the “Positive cell number (microglial cells with CD11b positive expression)” value worked out at 49 ± 7. In addition, the “Expression (pp38/GAPDH)” value with midbrain pp38 turned out to be 0.58 ± 0.12. In the experiment with substantia nigra p-α-s, the “Expression (Immunofluorescence intensity %)” value was found to be 202.07 ± 8.34%.
“(E)-2-[(methylamino)methoxy]-4-{2-[1-(4′-nitro-[1,1′-biphenyl]-4-yl)ethylsulfonyl]ethenyl}phenylcarbamate [Compound M1-3]”: the IC50 in experiment [1] (setting [2]) was found to be 17.6 ± 2.19 µM. For the same molecule, the “Positive cell number (astrocytes with GFAP positive expression)” value in the experiment on hippocampus GFAP came to 57 ± 3. In the experiment with substantia nigra CD11b, the “Positive cell number (microglial cells with CD11b positive expression)” value worked out at 33 ± 5. Besides, the “Expression (pp38/GAPDH)” value in the experiment on midbrain pp38 worked out at 0.42 ± 0.06. Also, the “Expression (Immunofluorescence intensity %)” value with substantia nigra p-α-s turned out to be 79.17 ± 5.10%.
